# “And” between values parts separate entries of the source, which are not always exact repeats. Identical values can stand only once.
# Tests used:
# [1] = Exposure-safety: logistic regression against model-predicted AUC0–24; format: in vivo, human; conditions: for predicted incidence of all grade total bilirubin elevation: median baseline total bilirubin 6.84 μmol/L; for AUC(0-t): human, serum, oral
# BCR-ABL transcript level = experiment: Exposure-efficacy: BCR-ABL ratio and MMR at 12 months by observed Cmin quartile; format: in vivo, human
# [2] = human, in vivo
# clinical = conditions: human, serum, oral
# OCT1 = conditions: cited from earlier work
# [3] = test system: efflux transporters (ABCB1, ABCG2); conditions: CML cells; cited from earlier work
# [4] = Population PK analysis, nonlinear mixed-effect modeling
# [5] = population mean (standard error)
smiles,measurement,setting,value
Cc1cn(-c2cc(NC(=O)c3ccc(C)c(Nc4nccc(-c5cccnc5)n4)c3)cc(C(F)(F)F)c2)cn1 [nilotinib],"predicted incidence of all grade abnormalities, hemoglobin",[1]; AUC0–24 16 μg·h/mL,31.7%
same,"predicted incidence of all grade abnormalities, lipase",[1]; AUC0–24 16 μg·h/mL,17.4%
same,predicted incidence of all grade total bilirubin elevation,[1]; AUC0–24 16 μg∙h/mL,29.4%
same,"predicted incidence of all grade abnormalities, hemoglobin",[1]; AUC0–24 24 μg·h/mL,36.4%
same,"predicted incidence of all grade abnormalities, lipase",[1]; AUC0–24 24 μg·h/mL,23.8%
same,predicted incidence of all grade total bilirubin elevation,[1]; AUC0–24 24 μg∙h/mL,46.5%
same,"predicted incidence of all grade abnormalities, hemoglobin",[1]; AUC0–24 32 μg·h/mL,39.9%
same,"predicted incidence of all grade abnormalities, lipase",[1]; AUC0–24 32 μg·h/mL,29.3%
same,predicted incidence of all grade total bilirubin elevation,[1]; AUC0–24 32 μg∙h/mL,59.5%
same,AUC(0-t),[1],25900 ng·h/mL
same,AUC(0-t),"[1]; male, 300 mg",24000 ng·h/mL
same,MMR difference vs Q1 (95% CI),"BCR-ABL transcript level; Q2/3 829–1,569 ng/mL vs Q1","1.7 (−10.4, 13.8)"
same,MMR difference vs Q1 (95% CI),"BCR-ABL transcript level; Q4 >1,569 ng/mL vs Q1","4.6 (−9.3, 18.6)"
same,MMR difference vs Q2/3 (95% CI),"BCR-ABL transcript level; Q4 >1,569 ng/mL vs Q2/3","2.9 (−9.0, 14.8)"
same,MMR at 12 months,"BCR-ABL transcript level; average Cmin Q1 <829 ng/mL, evaluable patients n observed 96",45 (46.9) n (%)
same,MMR at 12 months,"BCR-ABL transcript level; average Cmin Q2/3 829–1,569 ng/mL, evaluable patients n observed 208",101 (48.6) n (%)
same,MMR at 12 months,"BCR-ABL transcript level; average Cmin Q4 >1,569 ng/mL, evaluable patients n observed 101",52 (51.5) n (%)
same,higher exposure in 400 mg twice-daily arm than in 300 mg twice-daily arm,[2],11.5%
same,Vd,clinical,58 L
same,clearance,clinical,350 mL/min
same,dependence of movement into CML cells on influx transporter OCT1,OCT1,independent of the influx transporter OCT1
same,"role of efflux transporters (ABCB1, ABCG2) in cellular retention",[3],none of them appear to play an important role
same,predicted decrease in CL,[4]; AST increase from ULN to 1.5 × ULN,1%
same,predicted decrease in CL,[4]; AST increase from ULN to 2 × ULN,3%
same,"σ1, proportional random error",[4]; estimate (standard error),29.8 (0.917) %
same,"σ2, additive random error",[4]; estimate (standard error),110 (17.4) ng/mL
same,Interindividual variability of CL,"[4]; final model, % (SE)",37.6% and 37.6 (1.4) %
same,Interindividual variability of V1,"[4]; final model, % (SE)",79.2% and 79.2 (14.2) %
same,Interindividual variability of V2,"[4]; final model, % (SE)",98.9% and 98.9 (19.7) %
same,interindividual variability of CL before addition of significant covariates,[4]; model without covariates,40.0%
same,"D1, zero-order input duration",[4]; [5],9.88 (0.112) h
same,"V2, volume of distribution of peripheral compartment",[4]; [5],181 (25.4) L
same,"Lag, lag time for absorption","[4]; population mean, fixed",0.67 h (fixed)
same,lower bioavailability or systemic exposure in male than female patients,[4]; same dose level,approximately 10%
same,predicted decrease in CL,[4]; total bilirubin increase from ULN to 1.5 × ULN,12%
same,predicted decrease in CL,[4]; total bilirubin increase from ULN to 2 × ULN,23%
same,predicted decrease in CL,[4]; total bilirubin increase from ULN to 2.5 × ULN,32%

# From article PMC5557053 (European journal of clinical pharmacology, 2011)
